The text below walks through data of patent publication EP0831835B1, “TREATING ANOREXIA” (ELI LILLY AND COMPANY, priority 1995, dated 1996).

One data set deals with T1, 5-HT1C receptor (Homo sapiens, UniProt P28335).
T1 sequence (P28335 33-458): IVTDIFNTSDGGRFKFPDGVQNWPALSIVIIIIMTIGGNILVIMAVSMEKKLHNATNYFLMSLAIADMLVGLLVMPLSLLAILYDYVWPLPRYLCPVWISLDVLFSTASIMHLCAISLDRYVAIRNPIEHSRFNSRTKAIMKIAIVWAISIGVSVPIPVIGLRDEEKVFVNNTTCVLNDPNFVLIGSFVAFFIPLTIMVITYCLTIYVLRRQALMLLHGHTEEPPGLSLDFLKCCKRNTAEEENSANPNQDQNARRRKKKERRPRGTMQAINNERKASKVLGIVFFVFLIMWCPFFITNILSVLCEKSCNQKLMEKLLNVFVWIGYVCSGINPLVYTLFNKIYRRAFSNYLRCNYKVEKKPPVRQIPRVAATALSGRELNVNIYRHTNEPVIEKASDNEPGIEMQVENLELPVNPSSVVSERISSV
Description: pharmacological studies, activity at 5-HT1C receptor.

In another data set the test system is rodents. Description: animal studies in rodents (food intake / weight). The data set is classed as in vivo, Male Sprague Dawley CD rats. The following applies: many such animals. As to the method:
Male Sprague Dawley CD rats (Charles River, Wilmington, Mass.) are individually housed in cages with ad libitum access to Animal Chow and tap water. Temperature is maintained at approximately 21° C. Rats are adapted to vivarium conditions for at least a week before tests begin.
At the start of the experiments, the rats are weighed. […] Tests are conducted every 3-4 days. Food intake (± 0.1 g) is recorded hourly for the 5 h after intubation and after 24 h.

The test system of another data set is dogs. Description: animal studies in dogs (weight). The data set is classed as in vivo.
For the next data set, the system named is human patients. Description: double-blind multicenter clinical trial versus placebo. The following applies: human patients randomized to compound or placebo. In kind it is in vivo.
Another data set relates to human subjects. Description: double blind multicenter clinical trial versus haloperidol. The data set is classed as in vivo. The following applies: 1,996 human subjects, 5-20 mg/day, 6 weeks. The text has this: Another double blind multicenter clinical trial was completed using 1,996 human subjects. […] The study continued for 6 weeks, with possible extensions.
Data set [1] is described as follows: detection of radiolabelled compound in saliva. The data set is classed as in vivo. The method, then: For example, in the treatment of adult humans, dosages of from about 0.25 to 50 mg, preferably from 1 to 30 mg, and most preferably 1 to 20 mg per day may be used. A once a day dosage is normally sufficient, although divided doses may be administered. For treatment of cognitive dysfunction, a dose range of from 1 to 30 mg, preferably 1 to 20 mg per day is suitable.

The test system of data set [2] is muscarinic cholinergic receptor. The note with it: results of pharmacological studies.

Regarding `Cc1cc2c(s1)Nc1ccccc1N=C2N1CCN(C)CC1` [2-methyl-4-(4-methyl-1-piperazinyl)-10H-thieno[2,3-b][1,5]benzodiazepine], the “activity at the 5-HT1C receptor” value at 5-HT1C receptor is listed as “active”. The weight change entry in the data set with rodents was “lost weight”. In addition, in the data set on dogs, the “effectiveness for treatment of clinically significant decrease in appetite” value is given as “would not be effective”. Moreover, the weight change entry in the data set with dogs (many such animals) is “lost weight”. Moreover, the “usefulness for the treatment of anorexia” value in the data set with human patients is “can be useful for the treatment of anorexia”. In addition, in the data set on human subjects, the appetite entry was “increase in appetite” and the weight gain result is listed as “statistically significant dose dependent weight gain”. The detection in saliva result in data set [1] is “can be detected in the saliva”. Further, the “muscarinic cholinergic receptor activity” value in data set [2] is “has muscarinic cholinergic receptor activity”.
